According to patent US20110251188A1, “ACENAPHTHO HETEROCYCLE COMPOUNDS, CYCLODEXTRIN INCLUSION COMPOUNDS AND COMPLEXES, AND USES IN THE MANUFACTURES OF BH3 PROTEIN ANALOGUE, BCL-2 FAMILY PROTEIN INHIBITORS THEREOF” (DALIAN UNIVERSITY OF TECHNOLOGY, priority 2008, published 2011):
Converted amounts (≈) assume the structure as drawn.

Legend:
[1] = phase solubility experiment (solubility in water before and after cyclodextrin inclusion or complexation); settings: thermodynamic from solid, Solubility of compounds, Table 1, compound per se, before inclusion
MCF-7 cells = assay: cytotoxicity depending on BAX/BAK, MTT, MCF-7 cells with or without BAX/BAK interfering plasmid; format: cell-based
Procedure: 3 ng of BAX/BAK interfering plasmid was transfected into MCF-7 cells by using calcium phosphate coprecipitation method, 24 hours later, the cells were collected. The expressions after the BAX and BAK proteins interfered with RNA was detected by Western, and the cell groups without plasmid transfection were treated similarly and were set as the control group. The transfected cells were inoculated in a 96-well plate (1×10^5 cells/well), the control experiment of the cell group without plasmid transfection was carried out in parallel. The compound 3-thiomorpholinyl-8-oxo-8 H-acenaphtho[1,2-b]pyrrole-9-carbonitrile to be detected was added thereinto according to the concentration gradient designed before the experiment. 48 hours later, the cellular vitality was detected by MTT. The experimental results were shown in FIG. 6, Gossypol as nonspecific BH3 analogue was treated in parallel.

[2] = tested on: hepatoma carcinoma cells H22; assay: in vivo tumor model, subcutaneous H22 tumor in Kunming mice; settings: experimental group 2: peritoneal injection of DMSO solution, 0.3 mg/kg BW every other day, 10 days; tumor volume on the fortieth day
Procedure: The Kunming mice (in China) were randomly divided into groups, with 10 mice in each group. The cultivated hepatoma carcinoma cells H22 were inoculated subcutaneously in the oxter of the mice with 200 μL/mouse. After bearing the cancer cells for five days, the subcutaneous tumor was formed. Then the compound 3-thiomorpholinyl-8-oxo-8H-acenaphtho[1,2-b]pyrrole-9-carbonitrile and γ-cyclodextrin inclusion compound thereof were given by peritoneal injection, and the compound to be detected included by γ-cyclodextrin was given by oral administration. The detection conditions comprise:
Blank control group: the mice were not treated in any manner after the bearing cancer;
Control group (1): the mice were given a peritoneal injection of DMSO solution every other day after the bearing cancer, 10 days in total;
Control group (2): the mice were given a peritoneal injection of cyclodextrin solution every other day after the bearing cancer, 10 days in total;
Experimental group (1): the mice were given a peritoneal injection of DMSO solution equivalent to 0.03 mg/kg BW compound every other day after the bearing cancer, 10 days in total;
Experimental group (2): the mice were given a peritoneal injection of DMSO solution equivalent to 0.3 mg/kg BW compound every other day after the bearing cancer, 10 days in total;
Experimental group (3): the mice were given a peritoneal injection of inclusion compound water solution equivalent to 0.3 mg/kg BW compound every other day after the bearing cancer, 10 days in total;
Experimental group (4): the mice were given an intragastric administration of inclusion compounds water solution equivalent to 0.3 mg/kg BW compound every other day after the bearing cancer, 10 days in total;
During the experimental period, the length-diameter (a) and short diameter (b), which was perpendicular to the length-diameter, of the tumor were detected twice every week. The gross tumor volume was determined according to the formula: ½ab^2. The survival time of the animal was observed. The tumor inhibition rate was calculated by the tumor volume on the fortieth day.

Bax protein = assay: co-localization between Bax protein and chondriosome, Bax-YFP transfected MCF-7 cells; format: cell-based; settings: for Time for which the compound drove the BAX to shift towards the chondriosome: goes with the concentration of E14; for Concentration at which the compound drove the BAX to shift towards the chondriosome: goes with the time of E15
Procedure: 5 ng of Bax-YFP plasmid was transfected into MCF-7 cells by using calcium phosphate coprecipitation method, 24 hours later, the cells were inoculated in a 6-well plate (0.2×10^6 cells/well), and 10 μM of the compound 3-thiomorpholinyl-8-oxo-8 H-acenaphtho[1,2-b]pyrrole-9-carbonitrile to be detected was added thereinto. 6 hours later, the cells were washed with PBS and hatched away from light with 50 nM Mito Tracker Red CMXRos (chondriosome specific probes; red) for 10 minutes. Then the cells were washed with PBS for three times, and the fluorescent image was scanned with Radiance2000 laser confocal microscopy (Bio-Rad, USA). Meanwhile, dual channel scanning was carried out, one channel was used to scan the green fluorescence of Bax-YFP, and the other channel was used to scan the red fluorescence of the CMXRos probe for indicating the chondriosome. […] When the Bax protein was localized on the chondriosome, the green and red fluorescence was superimposed into orange, as shown in FIG. 4.
Other 8 compounds were detected by the same experimental method as described above. […] Wherein the concentration and time meant that the detected compound simulated the BH3-only protein and driven the BAX to shift towards the chondriosome at the concentration for the time period.

Mcl-1 [3] = assay: Western blotting, compounds compared with cyclodextrin inclusion compounds and complexes, Example 24; format: cell-based; settings: Table 8; 10 μM or equivalent of inclusion compound, 24 hours
Procedure: (§1) The cells were inoculated in a 6-well plate (2×10^5 cells/well). In the compound group, the compound 3-thiomorpholinyl-8-oxo-8H-acenaphtho[1,2-b]pyrrole-9-carbonitrile was dissolved into DMSO until the final concentration reached 10 μM. In the inclusion group, γ-cyclodextrin inclusion, which had been dissolved into water and was equivalent to 10 μM of the compound, was added thereinto. 24 hours later, the cells were washed with PBS for three times, then the cell sample was collected and cracked with 1×10^6/50 μl cell lysis solution (62.5 mM Tris-HCL pH 6.8; 2% SDS; 10% glycerol; 50 mM DTT; 0.01% bromphenol blue) at low temperature, then the solution was centrifuged and the protein supernatant was collected. The sample was boiled at 100° C. for 5 minutes and then was separated by electrophoresis on 12% SDS-PAGE and transferred. The interest protein was detected by the corresponding antibody. The expression of the interest protein in the cells was detected by horseradish peroxidase-labeled secondary antibodies in combination with ECL coloration method. […] The concentration of the protein bands in the Western figures were carried out semiquantitative analysis and normalization treatment with KODAK Gel Logic 1500 imaging system software.

Bcl-2 = assay: as above; format: cell-based; settings: Table 9; 10 μM or equivalent of inclusion compound, 24 hours
Procedure: as §1

Mcl-1 [4] = assay: Western blotting, inhibition (downregulation) of Mcl-1 in tumor cells, Example 23; format: cell-based; settings: for inhibition against Mcl-1: Western blotting, tumor cells
Procedure: The interest protein was detected by the corresponding antibody. The expression of the interest protein in the cells was detected by horseradish peroxidase-labeled secondary antibodies in combination with ECL coloration method. […] The concentration of the protein bands in the Western images were carried out semiquantitative analysis and normalization treatment with KODAK Gel Logic 1500 imaging system software.

| solubility [1] | SMILES | dependence of cytotoxicity on BAX/BAK (MCF-7 cells) | tumor inhibition rate [2] | Time for which the compound drove the BAX to shift towards the chondriosome (Bax protein) | Concentration at which the compound drove the BAX to shift towards the chondriosome (Bax protein) | downregulation of Mcl-1 protein, semiquantitative analysis (band concentration, control = 1) (Mcl-1 [3]) | downregulation of Bcl-2 protein, semiquantitative analysis (band concentration, control = 1) (Bcl-2) | downregulation of Mcl-1 protein, semiquantitative analysis (band concentration, control = 1) (Mcl-1 [4]; 6 hours) | downregulation of Mcl-1 protein, semiquantitative analysis (band concentration, control = 1) (Mcl-1 [4]; 12 hours) | downregulation of Mcl-1 protein, semiquantitative analysis (band concentration, control = 1) (Mcl-1 [4]; 18 hours) | downregulation of Mcl-1 protein, semiquantitative analysis (band concentration, control = 1) (Mcl-1 [4]; 24 hours) | inhibition against Mcl-1 (Mcl-1 [4]) |
| --- | --- | --- | --- | --- | --- | --- | --- | --- | --- | --- | --- | --- |
| 0.12 µM (≈ 0.0276 µg/mL) | N#CC1=C2C(=NC1=O)c1cccc3cccc2c13 [8-oxo-8H-acenaphtho[1,2-b]pyrrole-9-carbonitrile] | absolute dependence on BAX/BAK | about 60% | 3 h | 1.0 µM | 0.77 | 0.69 | 0.99 | 0.99 | 0.48 | 0.21 | had the inhibition against Bcl-2 and Mcl-1 proteins |
| 0.28 µM (≈ 0.099 µg/mL) | N#CC1=C2C(=NC1=O)c1c(Sc3ccc(N)cc3)ccc3cccc2c13 [6-(4-aminophenylthio)-8-oxo-8H-acenaphtho[1,2-b]pyrrole-9-carbonitrile] | absolute dependence on BAX/BAK | about 30% | 6 h | 5.0 µM | 0.70 | 0.74 | 0.99 | 0.99 | 0.55 | 0.27 | had the inhibition against Bcl-2 and Mcl-1 proteins |
| 0.16 µM (≈ 0.0967 µg/mL) | N#CC1=C2C(=NC1=O)c1c(Sc3ccc(Br)cc3)ccc3c(Sc4ccc(Br)cc4)ccc2c13 [3,6-di(4-bromophenylthio)-8-oxo-8H-acenaphtho[1,2-b]pyrrole-9-carbonitrile] | absolute dependence on BAX/BAK | about 78% | 6 h | 5.0 µM | 0.69 | 0.69 | 0.99 | 0.99 | 0.70 | 0.57 | had the inhibition against Bcl-2 and Mcl-1 proteins |

The remaining lines, values behind:

| SMILES | solubility [1] | dependence of cytotoxicity on BAX/BAK (MCF-7 cells) | tumor inhibition rate [2] | Time for which the compound drove the BAX to shift towards the chondriosome (Bax protein) | Concentration at which the compound drove the BAX to shift towards the chondriosome (Bax protein) | downregulation of Mcl-1 protein, semiquantitative analysis (band concentration, control = 1) (Mcl-1 [3]) | downregulation of Bcl-2 protein, semiquantitative analysis (band concentration, control = 1) (Bcl-2) | downregulation of Mcl-1 protein, semiquantitative analysis (band concentration, control = 1) (Mcl-1 [4]; 6 hours) | downregulation of Mcl-1 protein, semiquantitative analysis (band concentration, control = 1) (Mcl-1 [4]; 12 hours) | downregulation of Mcl-1 protein, semiquantitative analysis (band concentration, control = 1) (Mcl-1 [4]; 18 hours) | downregulation of Mcl-1 protein, semiquantitative analysis (band concentration, control = 1) (Mcl-1 [4]; 24 hours) | inhibition against Mcl-1 (Mcl-1 [4]) |
| --- | --- | --- | --- | --- | --- | --- | --- | --- | --- | --- | --- | --- |
| N#CC1=C2C(=NC1=O)c1c(Sc3ccc(N)cc3)ccc3c(Sc4ccc(N)cc4)ccc2c13 [3,6-di(4-aminophenylthio)-8-oxo-8 H-acenaphtho[1,2-b]pyrrole-9-carbonitrile] | 0.31 µM (≈ 0.148 µg/mL) | absolute dependence on BAX/BAK | about 50% | 6 h | 5.0 µM | 0.75 | 0.75 | 0.99 | 0.99 | 0.68 | 0.33 | had the inhibition against Bcl-2 and Mcl-1 proteins |
| N#CC1=C2C(=NC1=O)c1cccc3c(Sc4ccc(Br)cc4)ccc2c13 [3-(4-bromophenylthio)-8-oxo-8H-acenaphtho[1,2-b]pyrrole-9-carbonitrile] |  | absolute dependence on BAX/BAK | about 40% | 6 h | 1.0 µM | 0.69 | 0.67 | 0.99 | 0.99 | 0.64 | 0.31 | had the inhibition against Bcl-2 and Mcl-1 proteins |
